Data taken from the SangsterLogP compilation.

assay: method code SF-AS, from DOI: 10.1021/jo00922a017; settings: pH 1.0

SMILES	logD
CC(=O)c1ccc(NS(=O)(=O)C(F)(F)F)cc1	2.83
COc1cccc(NS(=O)(=O)C(F)(F)F)c1	3.13
O=S(=O)(Nc1cccc(Br)c1)C(F)(F)F	3.82
O=S(=O)(Nc1ccc(F)cc1F)C(F)(F)F	3.06
O=C(c1ccccc1)c1ccc(NS(=O)(=O)C(F)(F)F)cc1	4.28
O=S(=O)(Nc1cccc(Cl)c1)C(F)(F)F	4
O=S(=O)(Nc1cccc(F)c1)C(F)(F)F	3.42
O=S(=O)(Nc1ccc(Cl)cc1)C(F)F	2.84
O=S(=O)(Nc1ccc(C(F)(F)F)cc1)C(F)(F)F	4.47
O=S(=O)(Nc1cccc(C(F)(F)F)c1)C(F)(F)F	4.5
O=S(=O)(CF)Nc1ccccc1	1.35
CS(=O)(=O)c1cccc(NS(=O)(=O)C(F)(F)F)c1	1.85
O=S(=O)(Nc1ccc(Cl)cc1Cl)C(F)(F)F	3.88
O=S(=O)(CF)Nc1ccc(Cl)cc1	2.25
O=S(=O)(Nc1ccccc1)C(F)(F)F	3.05
O=S(=O)(Nc1cccc(O)c1)C(F)(F)F	2.51
CC(=O)c1cccc(NS(=O)(=O)C(F)(F)F)c1	2.78
Cc1ccc(NS(=O)(=O)C(F)(F)F)cc1	3.6
O=S(=O)(Nc1ccccc1)C(F)F	1.95
O=S(=O)(Nc1ccc(I)cc1)C(F)(F)F	4.39
O=S(=O)(Nc1ccc(-c2ccccc2)cc1)C(F)(F)F	4.97
O=S(=O)(Nc1ccc(Cl)cc1)C(F)(F)F	3.96
CS(=O)(=O)Nc1ccc(Cl)cc1	1.85
CS(=O)(=O)c1ccc(NS(=O)(=O)C(F)(F)F)cc1	1.99
O=S(=O)(Nc1ccc(F)cc1)C(F)(F)F	3.25
COc1ccc(NS(=O)(=O)C(F)(F)F)cc1	3
